Laboratory results reported in patent publication US11028051B2, “Tetrahydroquinoline-based bromodomain inhibitors” (St. Jude Children's Research Hospital, priority 2016, dated 2021).

Assays:
BRD2-BD1 [1] = target: T1, BRD2-BD1 (Homo sapiens (Human), UniProt P25440); assay: competitive TR-FRET assay, BET-BD with acetylated peptide ligand; assay type: binding; conditions: BRD2-BD1; Table 11 additional modifications; read-out: 2.1 EC50
Method: (§1) Inhibitor potency was determined using a competitive TR-FRET assay as detailed herein, measuring interaction of the respective BET-BD with an acetylated peptide ligand (Table 2).
Target sequence in this assay (P25440 74-180): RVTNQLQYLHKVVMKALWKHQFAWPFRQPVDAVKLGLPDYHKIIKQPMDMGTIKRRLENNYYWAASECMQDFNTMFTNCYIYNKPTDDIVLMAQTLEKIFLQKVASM

BRD3-BD1 = BRD3-BD1 (Homo sapiens (Human), UniProt Q15059); assay: as above; assay type: binding; conditions: BRD3-BD1; Table 11 additional modifications; read-out: 3.1 EC50
Method: as §1

BRDT = BRDT (Homo sapiens, UniProt Q58F21); assay: as above; assay type: binding; conditions: BRDT; Table 11 additional modifications; read-out: BRDT EC50
Method: as §1

BRD2-BD2 = BRD2-BD2 (Homo sapiens (Human), UniProt P25440); assay: as above; assay type: binding; conditions: for EC50: BRD2-BD2, Table 11 additional modifications, read-out: 2.2 EC50; for 2.1/2.2: ratio of BRD2-BD1 EC50 to BRD2-BD2 EC50 (selectivity)
Method: as §1

BRD4-BD2 = BRD4-BD2 (Homo sapiens (Human), UniProt O60885); assay: as above; assay type: binding; conditions: for EC50: BRD4-BD2, Table 11 additional modifications, read-out: 4.2 EC50
Method: as §1

BRD4-BD1 = BRD4-BD1 (Homo sapiens (Human), UniProt O60885); assay: as above; assay type: binding; conditions: for EC50: BRD4-BD1, Table 11 additional modifications, read-out: 4.1 EC50
Method: as §1

[2] = system: c-Myc expression in HDMB03 cells; assay: c-Myc expression inhibition, high content microscopy (HCM); assay type: cell-based, human; conditions: Homo sapiens, HD-MB03, HDMB03 cells; read-out: c-Myc expression EC50
Method: 3000 human G3 medulloblastoma or 2000 mouse SHH medulloblastoma cells per well were plated into 384-well plates (6007710, Perkin Elmer) in 30 μL of supplemented neurobasal medium using a Wellmate automated dispenser (Thermo Matrix). After 24 hours, 125 nl of compound was transferred via pin tool, resulting in a final drug concentration from 2 nM to 40 μM. 72 hours after adding the drug, the plates were fixed with 4% formaldehyde for 20 min. After fixation the cells were then washed 3 times with 75 μl of PBS. The cells were then permeabilized with 0.1% Triton-X 100 for 15 minutes at 25° C. and blocked using 1% BSA in PBS for 1 hour at 25° C. The primary antibody against c-Myc Ab (#9402, Cell Signaling) at a 1:400 dilution was diluted in 1% BSA in PBS. This mixture was added to each well before incubation overnight at 4° C. Each well was then washed 3 times with PBS using a Biotek ELX405 Select plate washer, and incubated for 1 hour at 25° C. with a solution containing 1/400 goat α-rabbit-Alexa-488 (4412S, Cell Signaling) and 1 μM Hoechst 33342 to detect nuclear material (H3570, Molecular Probes). Two images were captured of each well at 10× using a GE Healthcare InCell 6000 at 405 nM to detect nuclear staining and 488 nM to detect c-Myc. All data were analyzed using the multi-target analysis algorithm of the GE InCell Analyzer Workstation software. The number of nuclear objects in each well, as well as all nuclear measurements, was determined through nuclear masks over the Hoechst staining. C-Myc staining was then measured using top-hat segmentation in the entire cell.

BRD2-BD1 [3] = target: T1, BRD2-BD1; assay: isothermal titration calorimetry analysis of binding; conditions: ITC, BRD2-BD1
Method: b. Isothermal Titration Calorimetry Analysis of Binding to Brd2-BD1 and Brd2-BD2
Binding of compounds to BRD2 was monitored using an ITC200 (Microcal, Piscataway, N.J.). Either Brd2.1 (74-194) or Brd2.2 (348-455) was dialyzed overnight into a solution containing 50 mM HEPES, pH 7.0 and 150 mM NaCl at 15° C. Enzyme concentrations were determined after dialysis by absorbance at 280 nm using a molar extinction coefficient (ε280) of 25,565 M^−1 cm^−1 (2.1) or 16,055 M^−1 cm^−1 (2.2). Enzyme was diluted in dialysis buffer and 39.6 μL was loaded into the syringe. Compounds were dissolved in the same dialysis buffer and loaded in the cell to a volume of 204 μL. Injections were carried out by serial injections of enzyme; first, 1 injection of 1 μL, followed by 19 incremental injections of 2 μL, at 120 second intervals. Data from the first injection was excluded, due to pre-equilibration mixing between the contents of cell and syringe at the syringe tip. Peak areas were integrated, normalized, and then fitted by non-linear regression using the independent sites model in Origin™ (version 2.3.6, Microcal, Piscataway, N.J.).
Target sequence in this assay (P25440 74-194): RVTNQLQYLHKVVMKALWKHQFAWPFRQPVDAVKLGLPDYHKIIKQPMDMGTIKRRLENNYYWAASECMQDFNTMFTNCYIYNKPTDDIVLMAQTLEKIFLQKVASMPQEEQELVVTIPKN

[4] = Table 2, inhibitor potency by TR-FRET

Chain of BRD2-BD2 (P25440 344-453): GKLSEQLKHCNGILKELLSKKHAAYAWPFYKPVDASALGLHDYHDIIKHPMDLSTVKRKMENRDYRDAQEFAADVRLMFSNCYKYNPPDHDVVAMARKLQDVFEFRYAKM
Chain of BRD3-BD1 (Q15059 34-140): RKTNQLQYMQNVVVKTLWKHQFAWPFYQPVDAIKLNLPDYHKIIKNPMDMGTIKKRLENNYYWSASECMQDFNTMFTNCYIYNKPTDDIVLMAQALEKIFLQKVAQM

Compound | EC50 (BRD2-BD1 [1]) | EC50 (BRD3-BD1) | EC50 (BRDT) | EC50 (BRD2-BD2) | 2.1/2.2 (BRD2-BD2) | EC50 (BRD4-BD2) | EC50 (BRD4-BD1) | EC50 [2] | ΔG (BRD2-BD1 [3]) | −TΔS (BRD2-BD1 [3]) | IC50 (BRD4-BD2; [4]) | IC50 (BRD4-BD1; [4])
CC(=O)N1c2ccc(-c3coc4ccccc34)cc2[C@H](NC(=O)OC(C)C)C[C@@H]1C [compound 90] | 11 µM | 3.4 µM | 14 µM | 3.5 µM | 0.84 | 56 µM | 8.7 µM | – | – | – | – | –
COC(=O)c1ccccc1N[C@@H]1C[C@H](C)N(C(C)=O)c2ccc(-c3cccc(NC(C)=O)c3)cc21 [compound 15] | 7 µM | 10 µM | 0.7 µM | 0.11 µM | 64 | 0.1 µM | 7 µM | – | – | – | – | –
CC(=O)Nc1cccc(-c2ccc3c(c2)[C@H](N)C[C@H](C)N3C(C)=O)c1 [compound 9] | 12 µM | 10 µM | 10 µM | 14 µM | 0.86 | 15 µM | 47 µM | – | – | – | – | –
CC(=O)N1c2ccc(-c3ccco3)cc2[C@H](NC(=O)OC(C)C)C[C@@H]1C [compound 50] | – | – | – | – | – | – | – | 0.33 µM | -7.47 kcal/mol | -0.20 kcal/mol | 2.6 µM | 4.6 µM
CC(=O)Nc1cccc(-c2ccc3c(c2)[C@H](Nc2ccc(N(C)C)cc2)C[C@H](C)N3C(C)=O)c1 [compound 118] | 3.6 µM | 2.1 µM | 1.6 µM | 0.11 µM | 10 | 0.21 µM | 5.1 µM | – | – | – | – | –
CC(=O)Nc1cccc(-c2ccc3c(c2)[C@H](Nc2ccc([N+](=O)[O-])cc2)C[C@H](C)N3C(C)=O)c1 [compound 127] | 2.3 µM | 1.2 µM | 4.1 µM | 0.11 µM | 17 | 0.06 µM | 2.9 µM | – | – | – | – | –
CC(=O)Nc1cccc(-c2ccc3c(c2)[C@H](Nc2ccc4c(c2)COC4=O)C[C@H](C)N3C(C)=O)c1 [compound 12] | 0.93 µM | 0.59 µM | 1.8 µM | 0.03 µM | 31 | 0.04 µM | 1.5 µM | – | – | – | – | –
COc1ccc(N[C@@H]2C[C@H](C)N(C(C)=O)c3ccc(-c4cccc(NC(C)=O)c4)cc32)cc1 [compound 18] | 1.9 µM | 1.5 µM | 2.6 µM | 0.11 µM | 4.8 | 0.08 µM | 2.3 µM | – | – | – | – | –
CC(=O)Nc1cccc(-c2ccc3c(c2)[C@H](NC2CCCC2)C[C@H](C)N3C(C)=O)c1 [compound 38] | 5.5 µM | 3.7 µM | 11 µM | 2.4 µM | 2.3 | 2.6 µM | 6.8 µM | – | – | – | – | –
CC(=O)Nc1cccc(-c2ccc3c(c2)[C@H](Nc2cncnc2)C[C@H](C)N3C(C)=O)c1 [compound 16] | 9.8 µM | 6.4 µM | 17 µM | 0.98 µM | 10 | 1.9 µM | 13 µM | – | – | – | – | –
CC(=O)Nc1cccc(-c2ccc3c(c2)[C@H](Nc2ccc4c(c2)OCO4)C[C@H](C)N3C(C)=O)c1 [compound 14] | 1.8 µM | 1.19 µM | 2.6 µM | 0.09 µM | 20 | 0.06 µM | 2 µM | – | – | – | – | –
CNCc1ccc(N[C@@H]2C[C@H](C)N(C(C)=O)c3ccc(-c4cccc(NC(C)=O)c4)cc32)cc1 [compound 23] | 2.3 µM | 0.71 µM | 2.1 µM | 0.1 µM | 23 | 0.32 µM | 1.5 µM | – | – | – | – | –
CC(=O)Nc1cccc(-c2ccc3c(c2)[C@H](NC(=O)OC(C)C)C[C@H](C)N3C(C)=O)c1 [compound 1] | 0.85 µM | 0.62 µM | 5.9 µM | 0.29 µM | 2.9 | 0.23 µM | 0.67 µM | – | – | – | – | –
COc1cccc(N[C@@H]2C[C@H](C)N(C(C)=O)c3ccc(-c4cccc(NC(C)=O)c4)cc32)c1 [compound 21] | 0.93 µM | 0.59 µM | 1.8 µM | 0.03 µM | 31 | 0.04 µM | 1.5 µM | – | – | – | – | –
CC(=O)Nc1cccc(-c2ccc3c(c2)[C@H](Nc2ccc(OC(F)(F)F)cc2)C[C@H](C)N3C(C)=O)c1 [compound 132] | 20 µM | 10 µM | 10 µM | 0.37 µM | 16 | 0.54 µM | 17 µM | – | – | – | – | –
CC(=O)Nc1cccc(-c2ccc3c(c2)[C@H](NC2CCCCCC2)C[C@H](C)N3C(C)=O)c1 [compound 37] | 2.4 µM | 1.2 µM | 2.8 µM | 0.62 µM | 3.9 | 0.54 µM | 1.5 µM | – | – | – | – | –
CC(=O)Nc1cccc(-c2ccc3c(c2)[C@H](NC2CCOCC2)C[C@H](C)N3C(C)=O)c1 [compound 36] | 3.2 µM | 1.4 µM | 7 µM | 3 µM | 1.1 | 5.4 µM | 2.4 µM | – | – | – | – | –
CC(=O)Nc1cccc(-c2ccc3c(c2)[C@H](Nc2cccc(OC(F)(F)F)c2)C[C@H](C)N3C(C)=O)c1 [compound 22] | 26 µM | 10 µM | 10 µM | 0.79 µM | 33 | 1.9 µM | 27 µM | – | – | – | – | –
CC(=O)Nc1cccc(-c2ccc3c(c2)[C@H](Nc2ccc(N(C)C(C)=O)cc2)C[C@H](C)N3C(C)=O)c1 [compound 11] | 3.2 µM | 1.6 µM | 4.3 µM | 0.2 µM | 16 | 51 µM | 3.4 µM | – | – | – | – | –
CC(=O)N1c2ccc(-c3cc4ccccc4[nH]3)cc2[C@H](NC(=O)OC(C)C)C[C@@H]1C [compound 92] | 1.7 µM | 0.41 µM | 3 µM | 1.4 µM | 5.1 | 1.3 µM | 1.3 µM | – | – | – | – | –
CC(=O)N1c2ccc(-c3cccc(NC(=O)OC(C)(C)C)c3)cc2[C@H](Nc2ccc(Cl)cc2)C[C@@H]1C [compound 134] | 21 µM | 10 µM | 10 µM | 0.59 µM | 36 | 0.9 µM | 21 µM | – | – | – | – | –
